In ChEMBL document CHEMBL1201862, “PubChem BioAssay data set” (2004):
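Cultured in 96-well plates, cells were exposed to test compound for 48 hours across five concentrations. GI50 = concentration required for 50% inhibition of growth.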 The source made the active and inactive calls. Cut-off read from the data, not from the text of the source: active = GI50 up to about 1.1 µM and inactive = higher.

Experiments:
Test in all cases: growth of human tumour cells (NCI), 48 h
HCC 2998 = tested on: HCC 2998
NCI/ADR-RES = tested on: NCI/ADR-RES
SF-539 = tested on: SF-539
SF-268 = tested on: SF-268
U-251 = tested on: U-251
SNB-75 = tested on: SNB-75
RXF 393 = tested on: RXF 393
NCI-H522 = tested on: NCI-H522
HCT-15 = tested on: HCT-15
SF-295 = tested on: SF-295
HT-29 = tested on: HT-29
IGROV-1 = tested on: IGROV-1
DU-145 = tested on: DU-145
MCF7 = tested on: MCF7
CAKI-1 = tested on: CAKI-1
UACC-62 = tested on: UACC-62
PC-3 = tested on: PC-3
MDA-N = tested on: MDA-N
HL-60 = tested on: HL-60

SMILES | GI50 (HCC 2998) | GI50 (NCI/ADR-RES) | GI50 (SF-539) | GI50 (SF-268) | GI50 (U-251) | GI50 (SNB-75) | GI50 (RXF 393) | GI50 (NCI-H522) | GI50 (HCT-15) | GI50 (SF-295) | GI50 (HT-29) | GI50 (IGROV-1) | GI50 (DU-145) | GI50 (MCF7) | GI50 (CAKI-1) | GI50 (UACC-62) | GI50 (PC-3) | GI50 (MDA-N) | GI50 (HL-60)
CCO/C=N/NC(=O)CSc1nc2ccc(I)cc2c(=O)n1Cc1ccccc1 | 43.5 µM (inactive) | > 100 µM (inactive) | 53.8 µM (inactive) | 44.3 µM (inactive) | 35.9 µM (inactive) | 40.5 µM (inactive) | 34.6 µM (inactive) | 3.04 µM (inactive) | > 100 µM | 56.4 µM (inactive) | 40.2 µM (inactive) | 39 µM (inactive) | > 100 µM (inactive) | 33.6 µM (inactive) | > 100 µM (inactive) | 43.9 µM (inactive) | 43.9 µM (inactive) | 37.8 µM (inactive) | > 100 µM (inactive)
CCc1nc(N)nc(N)c1-c1ccc(Cl)c([N+](=O)[O-])c1 | 2.95 µM (inactive) | 0.334 µM (active) | 0.325 µM (active) | 0.239 µM (active) | 0.126 µM (active) | 4.29 µM (inactive) | 10.8 µM (inactive) | 0.719 µM (active) | 0.0685 µM | 0.0637 µM (active) | 0.0588 µM (active) | 0.0778 µM (active) | 0.611 µM (active) | 0.274 µM (active) | 0.242 µM (active) | 0.0573 µM (active) | 0.0897 µM (active) | 0.0764 µM (active) | 0.053 µM (active)
CC(C)=CCN(N=O)c1ncnc2[nH]cnc12 | > 100 µM (inactive) | > 100 µM (inactive) | > 100 µM (inactive) | > 100 µM (inactive) | – | 54.8 µM (inactive) | > 100 µM (inactive) | > 100 µM (inactive) | – | > 100 µM (inactive) | > 100 µM (inactive) | > 100 µM (inactive) | > 100 µM (inactive) | > 100 µM (inactive) | > 100 µM (inactive) | – | 94.6 µM (inactive) | > 100 µM (inactive) | > 100 µM (inactive)
COc1ccc2nc3cc(Cl)ccc3c(NCCCCCC(=O)NC(COc3cnc4c(ccc5cccnc54)c3)COc3cnc4c(ccc5cccnc54)c3)c2c1 | 12.6 µM (inactive) | > 100 µM (inactive) | 10.9 µM (inactive) | 12.8 µM (inactive) | 8.53 µM (inactive) | 0.0313 µM (active) | 10.8 µM (inactive) | 26.9 µM (inactive) | > 100 µM | 20.8 µM (inactive) | 5.45 µM (inactive) | 10 µM (inactive) | 11.3 µM (inactive) | 5.04 µM (inactive) | 36.1 µM (inactive) | 21.4 µM (inactive) | 13.9 µM (inactive) | 19 µM (inactive) | 3.44 µM (inactive)
Cc1ccc2c(O)cc(-c3ccc(C)s3)nc2n1 | 0.805 µM (active) | 0.129 µM (active) | 0.325 µM (active) | 2.34 µM (inactive) | 0.413 µM (active) | 0.254 µM (active) | 0.656 µM (active) | 0.219 µM (active) | 0.0863 µM | 0.267 µM (active) | 0.526 µM (active) | 0.44 µM (active) | 0.993 µM (active) | 0.27 µM (active) | 0.811 µM (active) | 0.35 µM (active) | 0.234 µM (active) | 0.0213 µM (active) | 0.0775 µM (active)
CC(NC1=NCCO1)c1ccccc1Cl (centres undefined) | > 100 µM (inactive) | > 100 µM (inactive) | 27.2 µM (inactive) | > 100 µM (inactive) | > 100 µM (inactive) | 96.2 µM (inactive) | > 100 µM (inactive) | > 100 µM (inactive) | > 100 µM | > 100 µM (inactive) | 25.1 µM (inactive) | > 100 µM (inactive) | > 100 µM (inactive) | > 100 µM (inactive) | > 100 µM (inactive) | > 100 µM (inactive) | 91 µM (inactive) | > 100 µM (inactive) | > 100 µM (inactive)
C=C(C(=O)O[C@H]1C/C(C)=C/CC/C(CO)=C/[C@H]2C(=O)OC(=C)[C@H]12)C(O)CO (some centres undefined) | 16.4 µM (inactive) | 19.8 µM (inactive) | 4.71 µM (inactive) | 18.7 µM (inactive) | 12.1 µM (inactive) | 18.7 µM (inactive) | 8.28 µM (inactive) | 1.68 µM (inactive) | 8.05 µM | 26.1 µM (inactive) | 17.9 µM (inactive) | 19.5 µM (inactive) | 17.3 µM (inactive) | 11.5 µM (inactive) | 4.46 µM (inactive) | 17.5 µM (inactive) | 9.77 µM (inactive) | 11.7 µM (inactive) | 2.49 µM (inactive)
CCCCCCCCOC(=O)C12Oc3ccc(-c4ccc5c(c4O)C(=O)C4=C(O)CC(C)C(O)C4(C(=O)OCCCCCCCC)O5)c(O)c3C(=O)C1=C(O)CC(C)C2O (centres undefined) | 28.9 µM (inactive) | 30.7 µM (inactive) | 4.21 µM (inactive) | 12.2 µM (inactive) | 4.06 µM (inactive) | 4.99 µM (inactive) | 2.7 µM (inactive) | 8.36 µM (inactive) | 25 µM | 8.41 µM (inactive) | 27.2 µM (inactive) | 8.67 µM (inactive) | 34.4 µM (inactive) | 11.4 µM (inactive) | 25.2 µM (inactive) | 15.8 µM (inactive) | 23.2 µM (inactive) | 18 µM (inactive) | 2.92 µM (inactive)
O=C1NCCN1/N=C/c1c(Cl)n(-c2ccccc2)c2ccccc12 | 17.8 µM (inactive) | 19.5 µM (inactive) | 10.4 µM (inactive) | 20.1 µM (inactive) | 21.7 µM (inactive) | 21.1 µM (inactive) | > 10 µM (inactive) | 16.1 µM (inactive) | 17.6 µM | 29.4 µM (inactive) | 17.4 µM (inactive) | 17.2 µM (inactive) | 14.6 µM (inactive) | 22.1 µM (inactive) | 17.3 µM (inactive) | 16 µM (inactive) | 29 µM (inactive) | 9.25 µM (inactive) | 27.4 µM (inactive)
CNC(=O)OCc1c(COC(=O)NC)c(-c2ccc(-c3ccccc3)cc2)n(C)c1C | 2.82 µM (inactive) | 2.64 µM (inactive) | 1.86 µM (inactive) | 0.755 µM (active) | 1.92 µM (inactive) | 2.95 µM (inactive) | 0.512 µM (active) | 1.58 µM (inactive) | 2.17 µM | 1.43 µM (inactive) | 2.7 µM (inactive) | 2.24 µM (inactive) | 2.18 µM (inactive) | 2.75 µM (inactive) | 0.443 µM (active) | 1.64 µM (inactive) | 2.52 µM (inactive) | 4.34 µM (inactive) | 0.351 µM (active)
C=C(Cl)C(Cl)(CBr)CCCC(C)C (centres undefined) | 19.6 µM (inactive) | 27 µM (inactive) | 9.98 µM (inactive) | 15.1 µM (inactive) | 8.73 µM (inactive) | 8.83 µM (inactive) | 7.69 µM (inactive) | > 100 µM (inactive) | > 49.3 µM | 15.8 µM (inactive) | 4.42 µM (inactive) | > 100 µM (inactive) | 11.5 µM (inactive) | 12.4 µM (inactive) | 5.81 µM (inactive) | > 63.5 µM (inactive) | 13.2 µM (inactive) | 22 µM (inactive) | 12.1 µM (inactive)
CC(=O)C1(c2ccccc2)CCN(Cn2sc3nc(C)cc(C)c3c2=O)CC1 | 25 µM (inactive) | 32 µM (inactive) | 22.5 µM (inactive) | 34.8 µM (inactive) | 42.3 µM (inactive) | 28.3 µM (inactive) | 20.8 µM (inactive) | 12.4 µM (inactive) | 26.5 µM | > 100 µM (inactive) | 19.1 µM (inactive) | > 100 µM (inactive) | 31.4 µM (inactive) | 40 µM (inactive) | 35.9 µM (inactive) | 28.9 µM (inactive) | 37.6 µM (inactive) | 19.8 µM (inactive) | 18.7 µM (inactive)
CC1(C)C2CCC1(C)[C@H](n1c(=O)n([C@@H]3CC4CCC3(C)C4(C)C)c(=O)n([C@@H]3CC4CCC3(C)C4(C)C)c1=O)C2 | 22 µM (inactive) | > 100 µM (inactive) | 17.8 µM (inactive) | 41.6 µM (inactive) | 25.3 µM (inactive) | 16.2 µM (inactive) | 19.8 µM (inactive) | 37.4 µM (inactive) | 49.2 µM | 29.6 µM (inactive) | 56.8 µM (inactive) | 65.6 µM (inactive) | 55.7 µM (inactive) | 71.9 µM (inactive) | 66.7 µM (inactive) | – | 67.9 µM (inactive) | 68.4 µM (inactive) | 23.9 µM (inactive)
CO/N=C(\C(=O)N(C)n1cnnc1)c1csc(NC(c2ccccc2)(c2ccccc2)c2ccccc2)n1 | > 10 µM (inactive) | > 10 µM (inactive) | > 10 µM (inactive) | > 10 µM (inactive) | > 10 µM (inactive) | > 10 µM (inactive) | > 10 µM (inactive) | > 10 µM (inactive) | > 10 µM | > 10 µM (inactive) | > 10 µM (inactive) | > 10 µM (inactive) | > 10 µM (inactive) | > 10 µM (inactive) | > 10 µM (inactive) | – | > 10 µM (inactive) | > 10 µM (inactive) | > 10 µM (inactive)
O=[N+]([O-])c1ccc2c(c1)n1c(N3CCCC3)[n+]3ccccc3c1c1c3ccccn3c(N3CCCC3)[n+]21.[O-][Cl+3]([O-])([O-])[O-].[O-][Cl+3]([O-])([O-])[O-] | > 100 µM (inactive) | > 100 µM (inactive) | 39.5 µM (inactive) | 17.5 µM (inactive) | 36.7 µM (inactive) | 44 µM (inactive) | > 100 µM (inactive) | 29 µM (inactive) | > 100 µM | 61.4 µM (inactive) | – | > 100 µM (inactive) | > 100 µM (inactive) | 9.46 µM (inactive) | > 100 µM (inactive) | > 100 µM (inactive) | > 100 µM (inactive) | > 100 µM (inactive) | 32 µM (inactive)
